Each compound was assayed against T1, BTK (Homo sapiens, UniProt Q06187) (assay: Cellular BTK HTRF assay (BTK degradation) in TMD8 cells). Settings: four hours incubation, Total-BTK HTRF relative to DMSO-treated cells.
T1 construct: endogenous in cells; host or cells: TMD8 cells
Format: cell-based
Protocol: Example 66: BTK Degradation Assay
TMD8 cells were obtained from Tokyo Medical and Dental University and were grown in alpha-MEM (Fisher 12571063) supplemented with 10% heat-inactivated FBS (Corning Premium Fetal Bovine Serum from Fisher, MT35015CV).
Compounds of the present invention were added to 50,000 TMD8 cells in round-bottom 96 well plates with a final DMSO concentration of […] and were incubated at 37° C. 5% CO2 for four hours. BTK levels were determined using Cisbio Total-BTK HTRF ([…] Time-Resolved Fluorescence) kit (63ADK064PEG) according to manufacturer's protocol. Briefly, cells were incubated in 1× supplied lysis buffer for 30 minutes. In an opaque white low volume 96 well plate (Cisbio, 66PL96005), cell lysate was combined with two different specific BTK antibodies, one conjugated with Eu^3+-Cryptate FRET donor and one conjugated with d2 FRET acceptor. Assay controls include wells containing cell lysate with only the Eu^3+-Cryptate FRET donor antibody and wells containing both HTRF antibodies and lysis buffer without cells or control lysate provided by Cisbio. HTRF ratio was calculated as (acceptor signal at 665 nm/donor signal at 620 nm)×10^4. Background HTRF levels were determined from the control well containing the donor, but no acceptor, antibody. Background HTRF levels were subtracted from all samples. Readouts were reported as HTRF levels relative to HTRF levels of DMSO-treated cells. Four-parameter non-linear regressions were performed in GraphPad Prism 7.02 to obtain DC50 values. DC50 values are provided in Table 3, wherein A<5.0 nM, 5.0 nM≤B≤15 nM, and 15 nM<C.

T1 sequence (Q06187 whole entry): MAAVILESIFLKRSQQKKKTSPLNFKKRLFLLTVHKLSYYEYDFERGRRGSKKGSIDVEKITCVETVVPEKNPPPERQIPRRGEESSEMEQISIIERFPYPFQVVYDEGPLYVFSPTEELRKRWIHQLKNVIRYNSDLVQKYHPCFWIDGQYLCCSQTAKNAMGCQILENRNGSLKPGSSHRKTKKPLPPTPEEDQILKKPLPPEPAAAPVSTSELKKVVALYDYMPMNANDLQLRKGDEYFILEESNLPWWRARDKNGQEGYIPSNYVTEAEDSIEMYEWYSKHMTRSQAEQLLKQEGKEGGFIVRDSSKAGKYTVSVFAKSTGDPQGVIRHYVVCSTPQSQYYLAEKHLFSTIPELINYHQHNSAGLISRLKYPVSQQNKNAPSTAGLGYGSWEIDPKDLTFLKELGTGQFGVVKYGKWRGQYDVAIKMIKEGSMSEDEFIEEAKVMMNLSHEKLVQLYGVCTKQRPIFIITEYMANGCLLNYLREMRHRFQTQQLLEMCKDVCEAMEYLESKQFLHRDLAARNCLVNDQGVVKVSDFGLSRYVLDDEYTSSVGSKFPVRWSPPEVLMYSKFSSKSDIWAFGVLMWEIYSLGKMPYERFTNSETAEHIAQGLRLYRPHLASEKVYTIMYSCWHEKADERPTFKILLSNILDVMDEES

DC50, 5 to 15 nM:
CN1CCN([C@@H]2CCCN(c3cnc(C(N)=O)c(Nc4ccc(C(=O)NCCCCNc5cccc6c5C(=O)N(C5CCC(=O)NC5=O)C6=O)cc4)n3)C2)C1=O (some centres unmarked) [Compound 8]
CN1CCN([C@@H]2CCCN(c3cnc(C(N)=O)c(Nc4ccc(C5(C)CCN(C(=O)CCOCCCc6ccc7c(c6)C(=O)N(C6CCC(=O)NC6=O)C7=O)CC5)cc4)n3)C2)C1=O (some centres unmarked) [Compound 10]
CN1CCN([C@@H]2CCCN(c3cnc(C(N)=O)c(Nc4ccc(N5CCN(C(=O)CN6CCN(CCc7cccc8c7CN(C7CCC(=O)NC7=O)C8=O)CC6)CC5)cc4)n3)C2)C1=O (some centres unmarked) [Compound 12]
CN1CCN([C@@H]2CCCN(c3cnc(C(N)=O)c(Nc4ccc(C5(C)CCN(C(=O)CN6CCN(CCc7cccc8c7CN(C7CCC(=O)NC7=O)C8=O)CC6)CC5)cc4)n3)C2)C1=O (some centres unmarked) [Compound 13]
CN1CCN([C@@H]2CCCN(c3cnc(C(N)=O)c(Nc4ccc(C5(C)CCN(CCCc6cccc7c6CN(C6CCC(=O)NC6=O)C7=O)CC5)cc4)n3)C2)C1=O (some centres unmarked) [Compound 16]
CN1CCN([C@@H]2CCCN(c3cnc(C(N)=O)c(Nc4ccc(C5(C)CCN(CCOCCCc6cccc7c6C(=O)N(C6CCC(=O)NC6=O)C7=O)CC5)cc4)n3)C2)C1=O (some centres unmarked) [Compound 18]
CN1CCN([C@@H]2CCCN(c3cnc(C(N)=O)c(Nc4ccc(N5CCN(C(=O)CCOCCNc6cccc7c6C(=O)N(C6CCC(=O)NC6=O)C7=O)CC5)cc4)n3)C2)C1=O (some centres unmarked) [Compound 19]
CN1CCN([C@@H]2CCCN(c3cnc(C(N)=O)c(Nc4ccc(C5(C)CCN(CCCCc6cccc7c6CN(C6CCC(=O)NC6=O)C7=O)CC5)cc4)n3)C2)C1=O (some centres unmarked) [Compound 21]
CN1CCN([C@@H]2CCCN(c3cnc(C(N)=O)c(Nc4ccc(C5(C)CCN(C(=O)CN6CCN(CCCc7cccc8c7C(=O)N(C7CCC(=O)NC7=O)C8=O)CC6)CC5)cc4)n3)C2)C1=O (some centres unmarked) [Compound 22]
CN1CCN([C@@H]2CCCN(c3cnc(C(N)=O)c(Nc4ccc(C5CCN(C(=O)CCCCc6cccc7c6CN(C6CCC(=O)NC6=O)C7=O)CC5)cc4)n3)C2)C1=O (some centres unmarked) [Compound 23]
CN1CCN([C@@H]2CCCN(c3cnc(C(N)=O)c(Nc4ccc(C5CCN(C(=O)CCOCCOCCOCCNc6cccc7c6C(=O)N(C6CCC(=O)NC6=O)C7=O)CC5)cc4)n3)C2)C1=O (some centres unmarked) [Compound 24]
CN1CCN([C@@H]2CCCN(c3cnc(C(N)=O)c(Nc4ccc(C5(C)CCN(C(=O)CCCCc6cccc7c6CN(C6CCC(=O)NC6=O)C7=O)CC5)cc4)n3)C2)C1=O (some centres unmarked) [Compound 26]
CN1CCN([C@@H]2CCCN(c3cnc(C(N)=O)c(Nc4ccc(C5(C)CCN(C(=O)CCOCCOCCOCCNc6cccc7c6C(=O)N(C6CCC(=O)NC6=O)C7=O)CC5)cc4)n3)C2)C1=O (some centres unmarked) [Compound 27]
CN1CCN([C@@H]2CCCN(c3cnc(C(N)=O)c(Nc4ccc(C5(C)CCN(C(=O)CCOCCNc6cccc7c6C(=O)N(C6CCC(=O)NC6=O)C7=O)CC5)cc4)n3)C2)C1=O (some centres unmarked) [Compound 28]
CN1CCN([C@@H]2CCCN(c3cnc(C(N)=O)c(Nc4ccc(C5CN(CCCCc6cccc7c6CN(C6CCC(=O)NC6=O)C7=O)C5)cc4)n3)C2)C1=O (some centres unmarked) [Compound 36]

DC50, > 15 nM:
CN1CCN([C@@H]2CCCN(c3cnc(C(N)=O)c(Nc4ccc(C(=O)NCCOCCOCCOCCCc5cccc6c5CN(C5CCC(=O)NC5=O)C6=O)cc4)n3)C2)C1=O (some centres unmarked) [Compound 2]
CN1CCN([C@@H]2CCCN(c3cnc(C(N)=O)c(Nc4ccc(C(=O)NCCOCCOCCOCCNc5cccc6c5C(=O)N(C5CCC(=O)NC5=O)C6=O)cc4)n3)C2)C1=O (some centres unmarked) [Compound 3]
CN1CCN([C@@H]2CCCN(c3cnc(C(N)=O)c(Nc4ccc(OCCCNC(=O)CCCN5CCN(c6ccc7c(c6)C(=O)N(C6CCC(=O)NC6=O)C7=O)CC5)cc4)n3)C2)C1=O (some centres unmarked) [Compound 4]
CN1CCN([C@@H]2CCCN(c3cnc(C(N)=O)c(Nc4ccc(OCCCNC(=O)[C@H]5C[C@@H](OCCCc6cccc7c6C(=O)N(C6CCC(=O)NC6=O)C7=O)C5)cc4)n3)C2)C1=O (some centres unmarked) [Compound 5]
CN1CCN([C@@H]2CCCN(c3cnc(C(N)=O)c(Nc4ccc(OCCCNC(=O)CCCc5cccc6c5CN(C5CCC(=O)NC5=O)C6=O)cc4)n3)C2)C1=O (some centres unmarked) [Compound 6]
CN1CCN([C@@H]2CCCN(c3cnc(C(N)=O)c(Nc4ccc(C5(C)CCN(C(=O)CCCc6nnc(Nc7cccc8c7CN(C7CCC(=O)NC7=O)C8=O)o6)CC5)cc4)n3)C2)C1=O (some centres unmarked) [Compound 7]
CN1CCN([C@@H]2CCCN(c3cnc(C(N)=O)c(Nc4ccc(C(=O)NCCOCCc5cccc6c5CN(C5CCC(=O)NC5=O)C6=O)cc4)n3)C2)C1=O (some centres unmarked) [Compound 9]

DC50, < 5 nM:
CN1CCN([C@@H]2CCCN(c3cnc(C(N)=O)c(Nc4ccc(C5(C)CCN(C(=O)CCCN6CCN(c7ccc8c(c7)C(=O)N(C7CCC(=O)NC7=O)C8=O)CC6)CC5)cc4)n3)C2)C1=O (some centres unmarked) [Compound 11]
CN1CCN([C@@H]2CCCN(c3cnc(C(N)=O)c(Nc4ccc(N5CCN(CCCc6cccc7c6CN(C6CCC(=O)NC6=O)C7=O)CC5)cc4)n3)C2)C1=O (some centres unmarked) [Compound 15]
CN1CCN([C@@H]2CCCN(c3cnc(C(N)=O)c(Nc4ccc(C5(C)CCN(C(=O)CN6CCN(CCCc7cccc8c7CN(C7CCC(=O)NC7=O)C8=O)CC6)CC5)cc4)n3)C2)C1=O (some centres unmarked) [Compound 20]
CN1CCN([C@@H]2CCCN(c3cnc(C(N)=O)c(Nc4ccc(C5CCN(C[C@@H]6CCCN(c7ccc8c(c7)C(=O)N(C7CCC(=O)NC7=O)C8=O)C6)CC5)cc4)n3)C2)C1=O (stereo partly drawn) [Compound 32, 3-((4-(1-(((3S)-1-(2-(2,6-dioxopiperidin-3-yl)-1,3-dioxoisoindolin-5-yl)piperidin-3-yl)methyl)piperidin-4-yl)phenyl)amino)-5-((R)-3-(3-methyl-2-oxoimidazolidin-1-yl)piperidin-1-yl)pyrazine-2-carboxamide]
CN1CCN([C@@H]2CCCN(c3cnc(C(N)=O)c(Nc4ccc(N5CC6(CN(CCCc7cccc8c7CN(C7CCC(=O)NC7=O)C8=O)C6)C5)cc4)n3)C2)C1=O (some centres unmarked) [Compound 33]
CN1CCN([C@@H]2CCCN(c3cnc(C(N)=O)c(Nc4ccc(C5CN(C[C@H]6CCN(c7ccc8c(c7)C(=O)N(C7CCC(=O)NC7=O)C8=O)C6)C5)cc4)n3)C2)C1=O (some centres unmarked) [Compound 35]
CN1CCN([C@@H]2CCCN(c3cnc(C(N)=O)c(Nc4ccc(C5CCN(C[C@@H]6[C@H]7CN(c8ccc9c(c8)C(=O)N(C8CCC(=O)NC8=O)C9=O)C[C@@H]67)CC5)cc4)n3)C2)C1=O (some centres unmarked) [Compound 39]
CN1CCN([C@@H]2CCCN(c3cnc(C(N)=O)c(Nc4ccc(N5CCN(CCC6CCN(c7ccc8c(c7)C(=O)N(C7CCC(=O)NC7=O)C8=O)CC6)CC5)cc4)n3)C2)C1=O (some centres unmarked) [Compound 40]
CN1CCN([C@@H]2CCCN(c3cnc(C(N)=O)c(Nc4ccc(C5CCN(CCC6CCN(c7ccc8c(c7)C(=O)N(C7CCC(=O)NC7=O)C8=O)CC6)CC5)cc4)n3)C2)C1=O (some centres unmarked) [Compound 41]
CN1CCN([C@@H]2CCCN(c3cnc(C(N)=O)c(Nc4ccc(N5CCN(C[C@H]6CCN(c7ccc8c(c7)C(=O)N(C7CCC(=O)NC7=O)C8=O)C6)CC5)cc4)n3)C2)C1=O (some centres unmarked) [Compound 42]
CN1CCN([C@@H]2CCCN(c3cnc(C(N)=O)c(Nc4ccc(N5CCN(CCC6CN(c7ccc8c(c7)C(=O)N(C7CCC(=O)NC7=O)C8=O)C6)CC5)cc4)n3)C2)C1=O (some centres unmarked) [Compound 43]
CN1CCN([C@@H]2CCCN(c3cnc(C(N)=O)c(Nc4ccc(C5CCN(CCC6CN(c7ccc8c(c7)C(=O)N(C7CCC(=O)NC7=O)C8=O)C6)CC5)cc4)n3)C2)C1=O (some centres unmarked) [Compound 45]
CN1CCN([C@@H]2CCCN(c3cnc(C(N)=O)c(Nc4ccc(N5CCN(C[C@@H]6CCCN(c7ccc8c(c7)C(=O)N(C7CCC(=O)NC7=O)C8=O)C6)CC5)cc4)n3)C2)C1=O (some centres unmarked) [Compound 46]
CN1CCN([C@@H]2CCCN(c3cnc(C(N)=O)c(Nc4ccc(C5CCN(c6ccc7c(c6)C(=O)N(C6CCC(=O)NC6=O)C7=O)CC5)cc4)n3)C2)C1=O (some centres unmarked) [Compound 47]
CN1CCN([C@@H]2CCCN(c3cnc(C(N)=O)c(Nc4ccc(N5CCN(C[C@H]6CCCN(c7ccc8c(c7)C(=O)N(C7CCC(=O)NC7=O)C8=O)C6)CC5)cc4)n3)C2)C1=O (some centres unmarked) [Compound 48]
CN1CCN([C@@H]2CCCN(c3cnc(C(N)=O)c(Nc4ccc(N5CCN(CC6CCN(c7ccc8c(c7)C(=O)N(C7CCC(=O)NC7=O)C8=O)CC6)CC5)cc4)n3)C2)C1=O (some centres unmarked) [Compound 49]
CN1CCN([C@@H]2CCCN(c3cnc(C(N)=O)c(Nc4ccc(C5CCN(C[C@H]6CCCN(c7ccc8c(c7)C(=O)N(C7CCC(=O)NC7=O)C8=O)C6)CC5)cc4)n3)C2)C1=O (some centres unmarked) [Compound 50]
CN1CCN([C@@H]2CCCN(c3cnc(C(N)=O)c(Nc4ccc(C5CCN(C[C@@H]6CCN(c7ccc8c(c7)C(=O)N(C7CCC(=O)NC7=O)C8=O)C6)CC5)cc4)n3)C2)C1=O (some centres unmarked) [Compound 52]
CN1CCN([C@@H]2CCCN(c3cnc(C(N)=O)c(Nc4ccc(C5CCN(CC6CN(c7ccc8c(c7)C(=O)N(C7CCC(=O)NC7=O)C8=O)C6)CC5)cc4)n3)C2)C1=O (some centres unmarked) [Compound 54]
